pIC50: −log10 of the molar value. The source made the active and inactive calls. The rule behind the calls is not given here.

One assay concerns HL-60. Description: Antiproliferative activity against human HL-60 cells assessed as reduction in cell viability for 72 hrs by Celltitre-Glo luminescent assay. It counts as functional, cell-based. The settings on record: HL-60, 72 h.
For another assay, the target named is Histone deacetylase 2 (Homo sapiens, UniProt Q92769). As to the kind of experiment: Inhibition of recombinant human full length C-terminal GST-fusion tagged HDAC2 expressed in baculovirus infected insect cells using Boc-Lys(Ac)-AMC as substrate preincubated for 5 mins followed by substrate addition measured after 90 mins by fluorimetry. Format: cell-based.
Histone deacetylase 2, sequence (Q92769 whole entry, the tested form may be a part): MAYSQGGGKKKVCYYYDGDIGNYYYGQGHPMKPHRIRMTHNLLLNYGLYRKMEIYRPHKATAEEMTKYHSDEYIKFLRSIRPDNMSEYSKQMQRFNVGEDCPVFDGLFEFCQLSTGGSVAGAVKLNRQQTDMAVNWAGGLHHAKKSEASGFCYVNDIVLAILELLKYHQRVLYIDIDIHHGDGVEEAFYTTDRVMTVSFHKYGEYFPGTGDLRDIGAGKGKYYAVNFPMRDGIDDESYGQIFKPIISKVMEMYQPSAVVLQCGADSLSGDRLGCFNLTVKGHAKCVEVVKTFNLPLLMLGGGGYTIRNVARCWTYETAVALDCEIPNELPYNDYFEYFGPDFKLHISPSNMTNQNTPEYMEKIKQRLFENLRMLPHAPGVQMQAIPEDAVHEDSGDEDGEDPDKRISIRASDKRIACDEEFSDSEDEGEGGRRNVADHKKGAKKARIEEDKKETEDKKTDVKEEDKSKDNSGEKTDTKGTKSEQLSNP
Assay [1] is described as follows: Inhibition of Class 1/2b HDAC in human HL-60 cells by HDAC-Glo assay. Format: cell-based.
Assay [2] has as its target T1, Histone deacetylase (Homo sapiens) (UniProt Q13547+O15379+Q9UBN7+Q92769+Q9UQL6+Q8WUI4+Q9BY41+Q96DB2+P56524+Q9UKV0+Q969S8). Description: Inhibition of HDAC in human CAL-27 cells assessed as combination index at 0.35 uM measured in presence of 2 uM cDDP by MTT-based Chou-Talalay method. It counts as cell-based.
Assay [3] concerns the target T1, Histone deacetylase (Homo sapiens). As to the kind of experiment: Inhibition of HDAC in human CAL-27 cells assessed as combination index at 0.25 uM measured in presence of 5 uM cDDP by MTT-based Chou-Talalay method. It counts as cell-based.
Assay [4] shares this target. Description: Inhibition of HDAC in human Cal27CisR cells assessed as combination index at 0.3 uM measured in presence of 20 uM cDDP by MTT-based Chou-Talalay method. It counts as cell-based.
For assay [5] the target is unchanged. Description: Inhibition of HDAC in human Cal27CisR cells assessed as combination index at 0.3 uM measured in presence of 10 uM cDDP by MTT-based Chou-Talalay method. It counts as cell-based.
Assay [6] shares this target. As to the kind of experiment: Inhibition of HDAC in human CAL-27 cells assessed as combination index at 0.4 uM measured in presence of 10 uM cDDP by MTT-based Chou-Talalay method. Format: cell-based.
For assay [7], the system named is CAL-27. Description: Induction of apoptosis in cisplatin resistant human CAL-27 cells assessed as caspase 7 activation at 0.3 uM pretreated for 24 hrs followed by cisplatin treatment and further incubated for 18 hrs by Caspase3/7 detection reagent based assay. It counts as functional, cell-based. The conditions noted are these: time 42.0 hrs.
Assay [8] deals with T1, Histone deacetylase (Homo sapiens). As to the kind of experiment: Inhibition of HDAC in human CAL-27 cells assessed as combination index at 0.2 uM measured in presence of 5 uM cDDP by MTT-based Chou-Talalay method. It counts as cell-based.
For assay [9] the target is unchanged. Description: Inhibition of HDAC in human CAL-27 cells assessed as combination index at 0.35 uM measured in presence of 5 uM cDDP by MTT-based Chou-Talalay method. It counts as cell-based.
A further assay addresses Histone deacetylase. As to the kind of experiment: Inhibition of HDAC in human CAL-27 cells assessed as potentiation of cisplatin-induced cytotoxicity by measuring cisplatin IC50 at 0.3 to 0.5 uM pretreated for 48 hrs followed by cisplatin addition and measured after 72 hrs by MTT assay (reference value: 3.57 uM). Format: cell-based.
In assay [10] the test system is CAL-27. As to the kind of experiment: Induction of apoptosis in cisplatin resistant human CAL-27 cells assessed as caspase 3 activation at 0.3 uM pretreated for 24 hrs followed by cisplatin treatment and further incubated for 18 hrs by Caspase3/7 detection reagent based assay. It counts as functional, cell-based. The settings on record: time 42.0 hrs.
The target in assay [11] is T1, Histone deacetylase (Homo sapiens). As to the kind of experiment: Inhibition of HDAC in human Cal27CisR cells assessed as combination index at 0.4 uM measured in presence of 20 uM cDDP by MTT-based Chou-Talalay method. Format: cell-based.
For assay [12] the target is unchanged. As to the kind of experiment: Inhibition of HDAC in human Cal27CisR cells assessed as combination index at 0.2 uM measured in presence of 10 uM cDDP by MTT-based Chou-Talalay method. Format: cell-based.
Another assay relates to Cal27CisR. As to the kind of experiment: Induction of apoptosis in human Cal27CisR cells assessed as caspase 3 activation at 0.3 uM pretreated for 24 hrs followed by cisplatin treatment and further incubated for 18 hrs by Caspase3/7 detection reagent based assay. It counts as functional, cell-based. The settings on record: time 42.0 hrs.
In assay [13] the target is T1, Histone deacetylase (Homo sapiens). As to the kind of experiment: Inhibition of HDAC in human CAL-27 cells assessed as combination index at 0.2 uM measured in presence of 10 uM cDDP by MTT-based Chou-Talalay method. It counts as cell-based.
The target is the same in assay [14]. Description: Inhibition of HDAC in human Cal27CisR cells assessed as combination index at 0.3 uM measured in presence of 50 uM cDDP by MTT-based Chou-Talalay method. Format: cell-based.
For assay [15] the target is unchanged. As to the kind of experiment: Inhibition of HDAC in human Cal27CisR cells assessed as combination index at 0.6 uM measured in presence of 10 uM cDDP by MTT-based Chou-Talalay method. Format: cell-based.
Assay [16] has the same target. Description: Inhibition of HDAC in human Cal27CisR cells assessed as combination index at 0.6 uM measured in presence of 20 uM cDDP by MTT-based Chou-Talalay method. Format: cell-based.
For assay [17] the target is unchanged. As to the kind of experiment: Inhibition of HDAC in human CAL-27 cells assessed as combination index at 0.25 uM measured in presence of 10 uM cDDP by MTT-based Chou-Talalay method. Format: cell-based.
The target is the same in assay [18]. Description: Inhibition of HDAC in human CAL-27 cells assessed as combination index at 0.35 uM measured in presence of 10 uM cDDP by MTT-based Chou-Talalay method. It counts as cell-based.
Assay [19] has the same target. Description: Inhibition of HDAC in human CAL-27 cells assessed as combination index at 0.3 uM measured in presence of 5 uM cDDP by MTT-based Chou-Talalay method. It counts as cell-based.
Assay [20] has the same target. As to the kind of experiment: Inhibition of HDAC in human CAL-27 cells assessed as potentiation of cisplatin-induced cytotoxicity by measuring fold reduction in cisplatin IC50 at 0.3 to 0.5 uM pretreated for 48 hrs followed by cisplatin addition and measured after 72 hrs by MTT assay relative to cisplatin alone. It counts as cell-based. The settings on record: dose 0.3-0.5 µM, time 120.0 hrs.

Assay [21] has the same target. As to the kind of experiment: Inhibition of HDAC in human Cal27CisR cells assessed as combination index at 0.4 uM measured in presence of 50 uM cDDP by MTT-based Chou-Talalay method. It counts as cell-based.
The target is the same in assay [22]. As to the kind of experiment: Inhibition of HDAC in human CAL-27 cells assessed as combination index at 0.4 uM measured in presence of 2 uM cDDP by MTT-based Chou-Talalay method. It counts as cell-based.
Assay [23] shares this target. Description: Inhibition of HDAC in human CAL-27 cells assessed as combination index at 0.1 uM measured in presence of 10 uM cDDP by MTT-based Chou-Talalay method. It counts as cell-based.
Assay [24] shares this target. Description: Inhibition of HDAC in human Cal27CisR cells assessed as combination index at 0.6 uM measured in presence of 50 uM cDDP by MTT-based Chou-Talalay method. It counts as cell-based.
The target is the same in assay [25]. As to the kind of experiment: Inhibition of HDAC in human Cal27CisR cells assessed as combination index at 0.1 uM measured in presence of 20 uM cDDP by MTT-based Chou-Talalay method. Format: cell-based.
Assay [26] has the same target. Description: Inhibition of HDAC in human CAL-27 cells assessed as combination index at 0.4 uM measured in presence of 5 uM cDDP by MTT-based Chou-Talalay method. It counts as cell-based.
The target is the same in assay [27]. As to the kind of experiment: Inhibition of HDAC in human Cal27CisR cells assessed as combination index at 0.1 uM measured in presence of 50 uM cDDP by MTT-based Chou-Talalay method. It counts as cell-based.

A word on the pIC50: it is the negative decadic logarithm of the IC50, by convention in mol/L. In the case of `O=C(CCCCCONC(=O)c1nccc2ccccc12)NO`, the negative-log IC50 (pIC50) in the assay on HL-60 was 6.25; on Histone deacetylase 2, 6.12; in assay [1] it was 7.07.
By IC50 is commonly meant the concentration that inhibits the measured activity by half. For the molecule `O=C(CCCCCONC(=O)c1ccc2ccccc2n1)NO`, the CI in assay [2] is 0.68; in assay [3], 0.94; in assay [4], 0.37; in assay [5], 0.16; in assay [6], 0.02; in assay [8], 1.11. The CI stood at 0.05 in [9]; 0.26 in assay [11]; 0.27 in assay [12]; 0.04 in assay [13]; 0.44 in assay [14]; 0.1 in [15]. The CI in assay [16] is 0.45; in [17], 0.03; in assay [18], 0.02; in assay [19] it was 0.06; in [21] it was 0.47; in assay [22], 0.48. For the same molecule, the CI in assay [23] was found to be 0.22; in [24], 0.38; in assay [25], 5.25; in assay [26] it was 0.04; in [27], 0.32. Moreover, the pIC50 is 6.57 in the assay on HL-60, 7.04 on Histone deacetylase 2 and 7.14 in assay [1]. Also, the outcome in the assay with CAL-27 [7], in the assay on CAL-27 [10] and with Cal27CisR was Active. Further, at Histone deacetylase, the IC50 was determined as 1120 nM. The Ratio IC50 in assay [20] turned out to be 3.2.
In the case of `O=C(CCCCCONC(=O)c1cc2ccccc2[nH]1)NO`, the CI in [2] came to 0.21; in assay [3], 0.11; in [4], 0.29; in assay [5], 1.17; in assay [6] it was 0.02; in assay [8], 0.09. Further, the CI turned out to be 0.05 in assay [9]; 0.14 in assay [11]; 2.72 in assay [12]; 0.04 in assay [13]; 0.47 in assay [14]; 0.19 in assay [15]. The CI was 0.24 in assay [16]; 0.03 in assay [17]; 0.02 in assay [18]; 0.06 in assay [19]; 0.47 in [21]; 0.14 in assay [22]. Further, the CI in [23] stood at 0.22; in assay [24], 0.41; in assay [25], 2.3; in [26], 0.04; in [27], 0.36. The result with CAL-27 [7], with CAL-27 [10] and with Cal27CisR was Active. Further, the IC50 on Histone deacetylase stood at 1310 nM. Besides, the pIC50 at Histone deacetylase 2 is 7.24. For the same molecule, the Ratio IC50 in assay [20] is 2.73.

(Values after ChEMBL document CHEMBL4823243, “Synergistic induction of apoptosis in resistant head and neck carcinoma and leukemia by alkoxyamide-based histone deacetylase inhibitors” (Eur J Med Chem, 2021).)
